Source: the supplement of paper PMC10307832

Columns and labels:
Experiment in all cases: relative viability (nuclei count vs DMSO), 5 days (fraction); higher = more cells survive
Tosedostat + Vorinostat = compound: CC(C)C[C@@H](C(=O)N[C@H](C(=O)OC1CCCC1)c1ccccc1)[C@H](O)C(=O)NO [Tosedostat] + O=C(CCCCCCC(=O)Nc1ccccc1)NO [Vorinostat] (partner 1 µM)
How it was run: (§1)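 Five library-drug doses in √10 steps were combined with a fixed anchor-drug dose, or a single drug was given alone, by pin tool to lung cancer cell lines in 1536-well plates the day after seeding. Nuclei were stained and counted after 5 days. Relative viability is the nuclei count in treated wells over that in vehicle wells, taken as the median of duplicate plates.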

Tosedostat + Foretinib = compound: CC(C)C[C@@H](C(=O)N[C@H](C(=O)OC1CCCC1)c1ccccc1)[C@H](O)C(=O)NO [Tosedostat] + COc1cc2c(Oc3ccc(NC(=O)C4(C(=O)Nc5ccc(F)cc5)CC4)cc3F)ccnc2cc1OCCCN1CCOCC1 [Foretinib] (partner 0.25 µM)
How it was run: as §1

[1] = compound: CC1=NN=C(O1)C2=NN=C(C=C2)N3CCC(CC3)OC4=C(C=CC(=C4)F)Cl + CC(=O)Nc1cccc(-n2c(=O)n(C3CC3)c(=O)c3c(Nc4ccc(I)cc4F)n(C)c(=O)c(C)c32)c1 [Trametinib] (partner 0.02 µM)
How it was run: as §1

[2] = compound: CC1=NN=C(O1)C2=NN=C(C=C2)N3CCC(CC3)OC4=C(C=CC(=C4)F)Cl + CC1(C)CCC(c2ccc(Cl)cc2)=C(CN2CCN(c3ccc(C(=O)NS(=O)(=O)c4ccc(N[C@H](CCN5CCOCC5)CSc5ccccc5)c(S(=O)(=O)C(F)(F)F)c4)cc3)CC2)C1 [Navitoclax] (partner 0.5 µM)
How it was run: as §1

Cell Line | relative viability (Tosedostat + Vorinostat; first compound 0.02 µM) | relative viability (Tosedostat + Vorinostat; first compound 0.06325 µM) | relative viability (Tosedostat + Vorinostat; first compound 0.2 µM) | relative viability (Tosedostat + Vorinostat; first compound 0.6325 µM) | relative viability (Tosedostat + Vorinostat; first compound 2 µM) | relative viability (Tosedostat + Foretinib; first compound 0.02 µM) | relative viability (Tosedostat + Foretinib; first compound 0.06325 µM) | relative viability (Tosedostat + Foretinib; first compound 0.2 µM) | relative viability (Tosedostat + Foretinib; first compound 0.6325 µM) | relative viability (Tosedostat + Foretinib; first compound 2 µM) | relative viability ([1]; first compound 0.253 µM) | relative viability ([1]; first compound 0.8 µM) | relative viability ([1]; first compound 2.53 µM) | relative viability ([1]; first compound 8 µM) | relative viability ([2]; first compound 0.253 µM) | relative viability ([2]; first compound 0.8 µM) | relative viability ([2]; first compound 2.53 µM) | relative viability ([2]; first compound 8 µM)
EKVX | 0.722 | 0.647 | 0.764 | 0.688 | 0.773 | 0.649 | 0.759 | 0.795 | 0.736 | 0.729 | 0.26 | 0.254 | 0.26 | 0.286 | 0.451 | 0.368 | 0.429 | 0.423
EMC-BAC-2 | 0.605 | 0.713 | 0.471 | 0.408 | 0.323 | 0.954 | 1.02 | 0.999 | 1.1 | 0.838 | 0.873 | 0.736 | 0.791 | 0.65 | 0.998 | 0.909 | 1.03 | 0.936
EPLC-272H | 0.509 | 0.489 | 0.347 | 0.401 | 0.269 | 0.658 | 0.512 | 0.58 | 0.355 | 0.185 | 0.267 | 0.247 | 0.291 | 0.309 | 0.935 |  | 1.11 | 1.01
H3255 | 0.759 | 0.752 | 0.799 | 0.608 | 0.783 | 0.871 | 0.902 | 1.02 | 0.709 | 0.796 | 0.407 | 0.491 | 0.573 | 0.483 | 0.494 | 0.422 | 0.524 | 0.39
HARA | 1.35 | 0.531 | 0.544 | 0.377 | 0.295 | 0.941 | 0.914 | 0.852 | 0.813 | 0.787 | 0.438 | 0.369 | 0.448 | 0.322 | 0.451 | 0.392 | 0.393 | 0.352
HCC-15 | 0.941 | 0.849 | 0.826 | 0.757 | 0.745 | 1.08 | 0.995 | 1.02 | 0.96 | 0.849 | 0.404 | 0.399 | 0.376 | 0.385 | 0.477 | 0.445 | 0.455 | 0.491
HCC-44 | 1.26 | 1.07 | 1.09 | 1.04 | 1.07 |  |  |  |  |  | 0.608 | 0.994 | 0.945 | 0.856 | 0.424 | 0.476 | 0.477 | 0.447
HCC-78 | 0.472 | 0.42 | 0.452 | 0.501 | 0.486 | 0.518 | 0.59 | 0.545 | 0.662 | 0.684 | 0.338 | 0.396 | 0.433 | 0.365 | 0.436 | 0.43 | 0.544 | 0.525
HCC-366 | 0.426 | 0.305 | 0.394 | 0.386 | 0.352 | 0.913 | 0.948 | 0.972 | 0.927 | 0.935 | 0.16 | 0.23 | 0.268 | 0.193 | 0.445 | 0.387 | 0.423 | 0.364
